Reference: patent US12187758B2 (ROME Therapeutics, Inc., priority 2022, dated 2025)

Key:
Type in all cases: cell-based
THP1-Dual KO-TREX1 cells = test: THP1 TREX1 KO inhibition assay (type 1 interferon response); settings: Homo sapiens, 144 h, type 1 interferon (QUANTI-LUC), 1 μM 5-aza-2′-deoxycytidine, six days
Method: Exemplary compounds were tested for their ability to alter the type 1 interferon response in THP1 Dual TREX1 KG cells treated with 5-aza-2′-deoxycytidine. Assay procedures and results are described below.
THP1 Dual TREX1 KG cells were purchased from Invivogen. The THP1-Dual™ KO-TREX1 cells were cultured in RPMI 1640, 10% heat-inactivated fetal bovine serum, 25 mM HEPES, 10 μg/mL blasticidin, and 100 μg/mL zeocin. THP1-Dual™ KO-TREX1 cells were treated with a dose titration of a test compound alone or in the presence of 1 μM 5-aza-2′-deoxycytidine (Sigma-Aldrich, cat #189825). Type 1 Interferon and cell viability were assessed after six days of treatment.
Stock solution of the test compound was prepared in DMSO followed by a three-fold dilution in DMSO. Additional 50× dilution was prepared in cell culture media for each dilution. 10 μL of diluted test compound was then added to a 96-well plate.
THP1-Dual™ KO-TREX1 cells were treated with either 1×PBS or 1 μM 5-aza-2′-deoxycytidine. […] of the THP1-Dual™ KO-TREX1 cells from either treatment were added to each well of the 96-well plate containing the test compound titration at 50,000 cells/well. Cells were incubated at 37° C., 5% CO2 in a humidified incubator for six days. Cells treated with 1 μM 5-aza-2′-deoxycytidine were added at the same density as above and incubated at 37° C., 5% CO2 in a humidified incubator for six days. On day six, 25 μL of cell supernatant was transferred to a 96-well white-walled plate, followed by addition to each well of 50 μL of QUANTI-LUC solution containing stabilizer. Luminescence was detected on a plate reader according to the manufacturer's instructions.
The remaining cells were assessed for cell viability by adding 25 μL of CellTiter-Glo (Promega, G9683) solution to each well, and being placed on a shaker for 10 minutes at room temperature. Luminescence was detected on a plate reader, according to the manufacturer's instructions.
In the tables “A” represents values≤0.050 μM; “B” represents values from >0.050 μM to ≤0.100 μM; “C” represents values from >0.100 μM to ≤0.250 μM; “D” represents values from >0.250 μM to ≤1 μM; “E” represents values>1 μM; and “NT”=not tested: […]

[1] = Mitochondria toxicity assay with PC3 cells, in-cell ELISA COX-1; settings: 5 days treatment
Method: (§1) Exemplary compounds were tested for inhibition of expression of mitochondria DNA encoded proteins COX-1 […]. SDH-A (succinate dehydrogenase-A) is a control mitochondria protein encoded by nuclear DNA. Reduction in COX-1 expression indicates off target inhibition of mitochondria DNA synthesis which leads to mitochondrial toxicity. Assay procedures and results are described below.
(§2) PC3 cells were purchased from ATCC and cultured in F-12 Kaighn's modified medium (Hyclone), 10% heat-inactivated fetal bovine serum (Invitrogen), 1% Penicillin-Streptomycin (Invitrogen). PC3 cells were treated with a dose titration of a test compound on 96 well plates for 5 days at 37° C., 5% CO2 in a humidified incubator. The treatment plates are duplicated, one for in-cell ELISA for mitochondria proteins and one for cytotoxicity.
(§3) In-cell ELISA was performed to measure mitochondrial proteins using MitoBiogenesis In-Cell ELISA kit (Abcam) per manufacturer's instruction. The medium was aspirated from the compound treated cells, 100 μl per well of 4% paraformaldehyde (Solarbio) was added and cells were incubated at room temperature for 20 minutes. The cells were washed three times with PBS. 100 μl of 0.5% acetic acid was added per cell, and the cells were incubate at room temperature for 5 minutes. Cells were washed once with PBS. 100 μl per well of Permeabilization Buffer was added, and the cells incubate at room temperature for 30 minutes. The permeabilization buffer was removed and 200 μl per well 2× Blocking Buffer was added and the cells were incubated at room temperature for 2 hours. After removing the Blocking Buffer 100 μl per well of primary antibody to SDH-A or COX-1 was added, and the cells were incubated at 4° C. overnight. The primary antibody solution was removed and cells were washed 3 times with the Wash Buffer. 100 μl per well of AP- and HRP-labelled secondary antibodies was added, and the cells were incubated at room temperature for 1 hour. The cells were then washed 4 times with the Wash Buffer. For SDH-A detection, 100 μl per well AP Development Solution was added, and the cells were incubated at room temperature for 10 minutes. Cells were then read on CLARTO star^plus microplate reader (BMG Labtech) for kinetic readings at 405 nm for 5 minutes. […] The cells were then read on CLARTO star^plus microplate reader (BMG Labtech) for kinetic readings at 600 nm for 15 minutes.
(§4) In the table “A” represents values<1.0 μM; “B” represents values from >1.0 μM to ≤10.0 μM; “C” represents values from >10.0 μM to ≤50.0 μM; “D” represents values from >50.0 μM to ≤100.0 μM; and “E” represents values>100.0 μM.

[2] = test system: SDH-A (succinate dehydrogenase-A); test: Mitochondria toxicity assay with PC3 cells, in-cell ELISA SDH-A; settings: 5 days treatment
Method: as §1, §2, §3, §4

PC3 cells = test: Mitochondria toxicity assay with PC3 cells, cytotoxicity (Cell Titer Glo); settings: Homo sapiens, PC-3, 120 h, 5 days treatment
Method: as §2
For the cytotoxicity assay, the medium from the cell viability plate was removed, 50 μL per well of Cell Titer Glo (Promega, G9683) was added. Then the cells incubated for 30 minutes at room temperature. Luminescence was read by Envision (PerkinElmer 2105).
as §4

Row | SMILES | IC50 (THP1-Dual KO-TREX1 cells) [µM] | IC50 [1] [µM] | IC50 [2] [µM] | IC50 (PC3 cells) [µM]
1 | C#C[C@]1(CO)O[C@@H](n2ccc(N)nc2=O)[C@@H](F)[C@@H]1O [Compound 35, 4-amino-1-((2R,3S,4R,5R)-5-ethynyl-3-fluoro-4-hydroxy-5-(hydroxymethyl)tetrahydrofuran-2-yl)pyrimidin-2(1H)-one] | 0.25 to 1 | < 1 | > 100 | < 1
2 | C#C[C@]1(CO)O[C@@H](c2ccc3c(N)ncnn23)C[C@@H]1O [Compound 37, (2R,3S,5R)-5-(4-aminopyrrolo[2,1-f][1,2,4]triazin-7-yl)-2-ethyny1-2-(hydroxymethyl)tetrahydro-furan-3-ol] | > 1 | 1 to 10 | 1 to 10 | 10 to 50
3 | C#C[C@]1(CO)O[C@@H](n2cc(C)c(=O)[nH]c2=O)C[C@@H]1O [Compound 38, 1-((2R,4S,5R)-5-ethynyl-4-hydroxy-5-(hydroxymethyl)tetrahydrofuran-2-yl)-5-methylpyrimidine-2,4(1H,3H)-dione] | > 1 | > 100 | > 100 | > 100
4 | C#C[C@]1(CO)O[C@@H](n2cc(C)c(=O)[nH]c2=O)[C@@H](F)[C@@H]1O [Compound 39, 1-((2R,3S,4R,5R)-5-ethynyl-3-fluoro-4-hydroxy-5-(hydroxymethyl)tetrahydrofuran-2-yl)-5-methylpyrimidine-2,4(1H,3H)-dione] | > 1 | > 100 | > 100 | > 100
5 | C#C[C@]1(CO)O[C@@H](n2cnc3c(N)nc(F)nc32)[C@@H](F)[C@@H]1O [Compound 42, (2R,3R,4S,5R)-5-(6-amino-2-fluoro-9H-purin-9-yl)-2-ethynyl-4-fluoro-2-(hydroxymethyl)tetrahydro-furan-3-ol] | > 1 | 10 to 50 | 10 to 50 | 50 to 100
6 | C=C[C@]1(CO)O[C@@H](n2ccc(N)nc2=O)C[C@@H]1O [Compound 43, 4-amino-1-((2R,4S,5R)-4-hydroxy-5-(hydroxymethyl)-5-vinyltetrahydrofuran-2-yl)pyrimidin-2(1H)-one] | > 1 | 1 to 10 | 1 to 10 | > 100
7 | Nc1ccn([C@H]2C[C@H](O)[C@](CO)(CF)O2)c(=O)n1 [Compound 45, 4-amino-1-((2R,4S,5R)-5-(fluoromethyl)-4-hydroxy-5-(hydroxymethyl)tetrahydro-furan-2-yl)pyrimidin-2(1H)-one] | > 1 | < 1 | < 1 | 1 to 10
8 | Nc1nc2c(ncn2[C@H]2C[C@H](O)[C@](CO)(CF)O2)c(=O)[nH]1 [Compound 46, 2-amino-9-((2R,4S,5R)-5-(fluoromethyl)-4-hydroxy-5-(hydroxymethyl)tetrahydro-furan-2-yl)-1,9-dihydro-6H-purin-6-one] | > 1 | 1 to 10 | 1 to 10 | 1 to 10
9 | C=C[C@]1(CO)O[C@@H](n2ccc(N)nc2=O)[C@@H](F)[C@@H]1O [Compound 47, 4-amino-1-((2R,3S,4R,5R)-3-fluoro-4-hydroxy-5-(hydroxymethyl)-5-vinyltetrahydrofuran-2-yl)pyrimidin-2(1H)-one] | > 1 | 1 to 10 | 1 to 10 | 1 to 10
10 | [N-]=[N+]=N[C@]1(CO)O[C@@H](n2ccc(N)nc2=O)[C@@H](F)[C@@H]1O [Compound 50, 4-amino-1-((2R,3S,4R,5R)-5-azido-3-fluoro-4-hydroxy-5-(hydroxymethyl)tetrahydrofuran-2-yl)pyrimidin-2(1H)-one] | 0.25 to 1 | < 1 | < 1 | < 1
11 | CC[C@]1(COC(=O)C(C)C)O[C@@H](n2ccc(N)nc2=O)C[C@@H]1OC(=O)C(C)C [Compound 52, [(2R,3S,5R)-5-(4-amino-2-oxopyrimidin-1-yl)-2-ethyl-3-[(2-methylpropanoyl)oxy]oxolan-2-yl] methyl 2-methylpropanoate] | > 1 | > 100 | > 100 | > 100
12 | C=C[C@]1(COC(=O)C(C)C)O[C@@H](n2ccc(N)nc2=O)C[C@@H]1OC(=O)C(C)C [Compound 53, [(2R,3S,5R)-5-(4-amino-2-oxopyrimidin-1-yl)-2-ethenyl-3-[(2-methylpropanoyl)oxy]oxolan-2-yl] methyl 2-methylpropanoate] | > 1 | > 100 | > 100 | > 100
13 | CC(C)[C@]1(CO)O[C@@H](n2ccc(N)nc2=O)C[C@@H]1O [Compound 55, 4-amino-1-[(2R,4S,5R)-4-hydroxy-5-(hydroxymethyl)-5-isopropyloxolan-2-yl] pyrimidin-2-one] | > 1 | > 100 | > 100 | > 100
14 | C=CCC1(CO)O[C@@H](n2ccc(N)nc2=O)C[C@@H]1O (stereo partly drawn) [Compound 56, 1-((2R,4S)-5-allyl-4-hydroxy-5-(hydroxymethyl)tetrahydrofuran-2-yl)-4-aminopyrimidin-2(1H)-one] | > 1 | > 100 | > 100 | > 100
15 | CCCC1(CO)O[C@@H](n2ccc(N)nc2=O)C[C@@H]1O (stereo partly drawn) [Compound 57, 4-amino-1-((2R,4S,5R)-4-hydroxy-5-(hydroxymethyl)-5-propyltetrahydrofuran-2-yl)pyrimidin-2(1H)-one] | > 1 | > 100 | > 100 | > 100
16 | CC(C)C(=O)OC[C@@]1(CCl)O[C@@H](n2cc(F)c(N)nc2=O)C[C@@H]1OC(=O)C(C)C [Compound 58] | > 1 | 10 to 50 | > 100 | > 100
17 | CCC[C@]1(CO)O[C@@H](n2ccc(N)nc2=O)C[C@@H]1O [Compound 60, 4-amino-1-((2R,4S,5R)-4-hydroxy-5-(hydroxymethyl)-5-propyltetrahydrofuran-2-yl)pyrimidin-2(1H)-one] | > 1 | > 100 | > 100 | > 100
18 | Nc1ccn([C@H]2C[C@H](O)[C@](CO)(CC(F)(F)F)O2)c(=O)n1 [Compound 62, 4-amino-1-[(2R,4S,5R)-4-hydroxy-5-(hydroxymethyl)-5-(2,2,2-trifluoroethyl)oxolan-2-yl] pyrimidin-2-one] | > 1 | 10 to 50 | 10 to 50 | 10 to 50
